Legend:
Assay in all cases: Herbicidal effect by foliage and soil treatment
Assay type in all cases: in vivo
Settings in all cases: 10 g ai/10a, evaluated after 14 days
[1] = tested on: common blackjack (Bidens pilosa)
From the text: (§1) Experiment for Determination of Herbicidal Effect by Foliate and Soil Treatment Seeds of redroot pigweed (Amaranthus retroflexus), common blackjack (Bidens pilosa), kediock (Sinapis arvensis), common chickweed (Stellaria media), sicklepod (Cassia obtusifolia), black nightshade (Solanum nigrum), velvetleaf (Abutilon theophrasti), field bindweed (Convolvulus arvensis), wild chamomile (Matricaria chamomilla), cleavers (Galium aparine) and […] (Veronica hederaefolia), were uniformly sowed over a horticultural granular soil (produced by KUREHA CHEMICAL INDUSTRY, CO., LTD.; the same soil was used hereinafter) filled in a planter. The planter was placed in a greenhouse (maintained at 19 to 25° C.) to sprout these plants. Two seedlings of each sprouted plant were transplanted to a 10 cm-diameter pot filled with the horticultural granular soil and cultivated in the greenhouse (maintained at 19 to 25° C.) until reaching a cotyledonal to bifoliate period suited to the foliage and soil treatment. […] Next, additional amounts of Tween 20 and water were added to the obtained solution or suspension to produce a test solution. The plants prepared in the above (1) were placed within a frame having a predetermined inside area, and uniformly sprayed with the test solution using a sprayer such that the amount of each compound applied was controlled to a predetermined level. The plants sprayed with the test solution were placed again in the greenhouse (maintained at 19 to 25° C.) and cultivated therein. After 14 days, the degree of growth of each plant cultivated in the treated region was compared with that of plant cultivated in non-treated region, and evaluated according to the following ratings. The herbicidal activity of each test compound was represented by these ratings

[2] = tested on: field bindweed (Convolvulus arvensis)
From the text: as §1

[3] = tested on: ivyleafspeedwell (Veronica hederaefolia)
From the text: as §1

[4] = tested on: black nightshade (Solanum nigrum)
From the text: as §1

[5] = tested on: wild chamomile (Matricaria chamomilla)
From the text: as §1

[6] = tested on: sicklepod (Cassia obtusifolia)
From the text: as §1

[7] = tested on: kediock (Sinapis arvensis)
From the text: as §1

[8] = tested on: common chickweed (Stellaria media)
From the text: as §1

[9] = tested on: redroot pigweed (Amaranthus retroflexus)
From the text: as §1

[10] = tested on: cleavers (Galium aparine)
From the text: as §1

[11] = tested on: velvetleaf (Abutilon theophrasti)
From the text: as §1

Structure (SMILES) | herbicidal activity rating, BP (Bidens pilosa) [1] | herbicidal activity rating, CA (Convolvulus arvensis) [2] | herbicidal activity rating, VH (Veronica hederaefolia) [3] | herbicidal activity rating, SN (Solanum nigrum) [4] | herbicidal activity rating, MC (Matricaria chamomilla) [5] | herbicidal activity rating, CO (Cassia obtusifolia) [6] | herbicidal activity rating, SA (Sinapis arvensis) [7] | herbicidal activity rating, SM (Stellaria media) [8] | herbicidal activity rating, AR (Amaranthus retroflexus) [9] | herbicidal activity rating, GA (Galium aparine) [10] | herbicidal activity rating, AT (Abutilon theophrasti) [11]
CC(C)NC(=O)c1cc(N(C)Cc2ccccc2)cc(Oc2cccc(C(F)(F)F)c2)n1 [Compound I-58, N-(i-propyl)-4-{methyl(phenylmethyl)amino}-6-{3-(trifluoromethyl)phenoxy}-2-pyridine carboxamide] | 2 (percentage of weeds killed was not less than 20% and less than 40%) | 5 (percentage of weeds killed was not less than 80%) | 5 (percentage of weeds killed was not less than 80%) | 5 (percentage of weeds killed was not less than 80%) | 3 (percentage of weeds killed was not less than 40% and less than 60%) | 5 (percentage of weeds killed was not less than 80%) | 5 (percentage of weeds killed was not less than 80%) | 4 (percentage of weeds killed was not less than 60% and less than 80%) | 5 (percentage of weeds killed was not less than 80%) | 5 (percentage of weeds killed was not less than 80%) | 4 (percentage of weeds killed was not less than 60% and less than 80%)
COc1cc(Oc2cccc(C(F)(F)F)c2)nc(C(=O)NCC(C)C)c1 [Compound I-72] | 5 (percentage of weeds killed was not less than 80%) | 5 (percentage of weeds killed was not less than 80%) | 5 (percentage of weeds killed was not less than 80%) | 5 (percentage of weeds killed was not less than 80%) | 5 (percentage of weeds killed was not less than 80%) | 5 (percentage of weeds killed was not less than 80%) | 5 (percentage of weeds killed was not less than 80%) | 5 (percentage of weeds killed was not less than 80%) | 5 (percentage of weeds killed was not less than 80%) | 5 (percentage of weeds killed was not less than 80%) | 4 (percentage of weeds killed was not less than 60% and less than 80%)
COc1cc(Oc2cccc(OC(F)F)c2)nc(C(=O)NC(C)C)c1 [Compound I-38] | 2 (percentage of weeds killed was not less than 20% and less than 40%) | 4 (percentage of weeds killed was not less than 60% and less than 80%) | 5 (percentage of weeds killed was not less than 80%) | 5 (percentage of weeds killed was not less than 80%) | 4 (percentage of weeds killed was not less than 60% and less than 80%) | 4 (percentage of weeds killed was not less than 60% and less than 80%) | 5 (percentage of weeds killed was not less than 80%) | 4 (percentage of weeds killed was not less than 60% and less than 80%) | 5 (percentage of weeds killed was not less than 80%) | 5 (percentage of weeds killed was not less than 80%) | 4 (percentage of weeds killed was not less than 60% and less than 80%)
COc1cc(Oc2cccc(C(F)(F)F)c2)nc(C(=O)NCC(F)(F)C(F)(F)C(F)(F)F)c1 [Compound I-80] | 5 (percentage of weeds killed was not less than 80%) | 5 (percentage of weeds killed was not less than 80%) | 5 (percentage of weeds killed was not less than 80%) | 5 (percentage of weeds killed was not less than 80%) | 5 (percentage of weeds killed was not less than 80%) | 5 (percentage of weeds killed was not less than 80%) | 5 (percentage of weeds killed was not less than 80%) | 5 (percentage of weeds killed was not less than 80%) | 5 (percentage of weeds killed was not less than 80%) | 5 (percentage of weeds killed was not less than 80%) | 5 (percentage of weeds killed was not less than 80%)
CC(C)NC(=O)c1cc(N(C)C)cc(Oc2cccc(C(F)(F)F)c2)n1 [Compound I-57, N-(i-propyl)-4-dimethylamino-6-{3-(trifluoromethyl)phenoxy}-2-pyridine carboxamide] | 5 (percentage of weeds killed was not less than 80%) | 4 (percentage of weeds killed was not less than 60% and less than 80%) | 5 (percentage of weeds killed was not less than 80%) | 5 (percentage of weeds killed was not less than 80%) | 3 (percentage of weeds killed was not less than 40% and less than 60%) | 5 (percentage of weeds killed was not less than 80%) | 5 (percentage of weeds killed was not less than 80%) | 4 (percentage of weeds killed was not less than 60% and less than 80%) | 5 (percentage of weeds killed was not less than 80%) | 5 (percentage of weeds killed was not less than 80%) | 4 (percentage of weeds killed was not less than 60% and less than 80%)

Source: US6339045B1, “N-(unsubstituted or substituted)-4-substituted-6-(unsubstituted or substituted)phenoxy-2-pyridinecarboxamides or thiocarboxamides, processes for producing the same, and herbicides” (Kureha Kagaku Kogyo Kabushiki Kaisha, priority 1995, dated 2002)
